Results: patent US8563779B2, “(4-trifluoromethyl-3-thiobenzoyl)cyclohexanediones and use thereof as herbicides” (Bayer CropScience AG, priority 2010, dated 2013)

What was measured:
PHBPU [1] = experiment: Post-emergence herbicidal action against weed plants; format: in vivo, Pharbitis purpureum; conditions: scored after 3 to 4 weeks under glass
Description: (§1) [table] 2. Post-emergence Herbicidal Action Against Weed Plants Seeds of monocotyledonous and dicotyledonous weed plants are set out in cardboard pots in sandy loam soil, covered with soil, and cultivated under glass under good growth conditions. Two to three weeks after sowing, the trial plants are treated at the three-leaf stage. The compounds according to the invention, formulated as wettable powders or as emulsifiable concentrates, are sprayed onto the surface of the green parts of the plants, at a water application rate of 600 to 800 l/ha (converted). After the trial plants have stood for 3 to 4 weeks under optimum growth conditions under glass, the action of the compounds according to the invention is scored in comparison to compounds disclosed in the prior art.

EPHHL = experiment: as above; format: in vivo, Euphorbia heterophylla; conditions: dose 12.5 g a.c./ha, scored after 3 to 4 weeks under glass
Description: as §1

ALOMY [2] = experiment: Pre-emergence herbicidal action against weed plants; format: in vivo, Alopecurus myosuroides; conditions: dose 320 g a.c./ha, scored after 3 to 4 weeks under glass
Description: (§2) Water-dispersible granules are also obtained by homogenizing and precomminuting, in a colloid mill, • 25 parts by weight of a compound of the formula (I), • 5 parts by weight of sodium 2,2′-dinaphthylmethane-6,6′-disulfonate, • 2 parts by weight of sodium oleoylmethyltaurinate, • 1 part by weight of polyvinyl alcohol, • 17 parts by weight of calcium carbonate and • 50 parts by weight of water, subsequently grinding the mixture in a bead mill and atomizing and drying the resulting suspension in a spray tower by means of a single-fluid nozzle. C. BIOLOGICAL EXAMPLES 1. Pre-emergence Herbicidal Action Against Weed Plants
(§3) Seeds or rhizome sections of mono- and dicotyledonous weed plants are set out in pots of 9 to 13 cm in diameter, in sandy loam soil, and are covered with soil. The herbicides, formulated as emulsifiable concentrates or dusts, are applied to the surface of the covering earth in the form of aqueous dispersions or suspensions or emulsions, at a water application rate of 300 to 800 l/ha (converted). The pots are then maintained under glass under optimum conditions for the further cultivation of the plants. After 3 to 4 weeks under optimum growth conditions under glass, the trial plants are scored for the effect of the compounds according to the invention in comparison to compounds disclosed in the prior art.

PHBPU [3] = experiment: as above; format: in vivo, Pharbitis purpureum; conditions: dose 320 g a.c./ha, scored after 3 to 4 weeks under glass
Description: as §2, §3

VIOTR = experiment: as above; format: in vivo, Viola tricolor; conditions: dose 320 g a.c./ha, scored after 3 to 4 weeks under glass
Description: as §2, §3

MATIN = experiment: Post-emergence herbicidal action against weed plants; format: in vivo, Matricaria inodora; conditions: dose 50 g a.c./ha, scored after 3 to 4 weeks under glass
Description: as §1

PAPRH = experiment: as above; format: in vivo, Papaver rhoeas; conditions: dose 50 g a.c./ha, scored after 3 to 4 weeks under glass
Description: as §1

CYPES = experiment: Pre-emergence herbicidal action against weed plants; format: in vivo, Cyperus serotinus; conditions: dose 320 g a.c./ha, scored after 3 to 4 weeks under glass
Description: as §2, §3

POLCO = experiment: as above; format: in vivo, Polygonum convolvulus; conditions: dose 320 g a.c./ha, scored after 3 to 4 weeks under glass
Description: as §2, §3

ALOMY [4] = experiment: Post-emergence herbicidal action against weed plants; format: in vivo, Alopecurus myosuroides; conditions: dose 80 g a.c./ha, scored after 3 to 4 weeks under glass
Description: as §1

AMARE [5] = experiment: Pre-emergence herbicidal action against weed plants; format: in vivo; conditions: dose 320 g a.c./ha, scored after 3 to 4 weeks under glass
Description: as §2, §3

LOLMU [6] = experiment: as above; format: in vivo, Lolium multiflorum; conditions: dose 320 g a.c./ha, scored after 3 to 4 weeks under glass
Description: as §2, §3

ABUTH = experiment: Post-emergence herbicidal action against weed plants; format: in vivo, Abutilon theophrasti; conditions: dose 80 g a.c./ha, scored after 3 to 4 weeks under glass
Description: as §1

AMARE [7] = experiment: as above; format: in vivo; conditions: dose 80 g a.c./ha, scored after 3 to 4 weeks under glass
Description: as §1, with “2.” for “[table] 2.”

LOLMU [8] = experiment: as above; format: in vivo, Lolium multiflorum; conditions: dose 80 g a.c./ha, scored after 3 to 4 weeks under glass
Description: as §1

Cc1c(C(=O)c2cnn(C)c2O)ccc(C(F)(F)F)c1S(C)(=O)=O
Herbicidal action against PHBPU (PHBPU [1]; dose 12.5 g a.c./ha): 50% | Herbicidal action against EPHHL (EPHHL): 45%

Cc1c(C(=O)c2cnn(C)c2O)ccc(C(F)(F)F)c1[S+](C)[O-] (stereo not shown)
Herbicidal action against ALOMY (ALOMY [2]): 70% | Herbicidal action against PHBPU (PHBPU [3]): 50% | Herbicidal action against VIOTR (VIOTR): 90% | Herbicidal action against MATIN (MATIN): 74% | Herbicidal action against PAPRH (PAPRH): 55%

CCn1ncc(C(=O)c2ccc(C(F)(F)F)c(S(C)(=O)=O)c2C)c1O
Herbicidal action against ALOMY (ALOMY [2]): 50% | Herbicidal action against CYPES (CYPES): 60% | Herbicidal action against POLCO (POLCO): 60%

CCn1ncc(C(=O)c2ccc(C(F)(F)F)c([S+](C)[O-])c2C)c1O (stereo not shown)
Herbicidal action against ALOMY (ALOMY [2]): 70% | Herbicidal action against PHBPU (PHBPU [3]): 0% | Herbicidal action against ALOMY (ALOMY [4]): 60% | Herbicidal action against PHBPU (PHBPU [1]; dose 80 g a.c./ha): 80%

Cc1nn(C)c(O)c1C(=O)c1ccc(C(F)(F)F)c(S(C)(=O)=O)c1C
Herbicidal action against ALOMY (ALOMY [2]): 50% | Herbicidal action against CYPES (CYPES): 50% | Herbicidal action against AMARE (AMARE [5]): 90%

Cc1nn(C)c(O)c1C(=O)c1ccc(C(F)(F)F)c([S+](C)[O-])c1C (stereo not shown)
Herbicidal action against ALOMY (ALOMY [2]): 60% | Herbicidal action against VIOTR (VIOTR): 40% | Herbicidal action against LOLMU (LOLMU [6]): 60% | Herbicidal action against ABUTH (ABUTH): 80% | Herbicidal action against AMARE (AMARE [7]): 50% | Herbicidal action against LOLMU (LOLMU [8]): 30%

Cc1c(C(=O)C2C(=O)C3CCC(C3)C2=O)ccc(C(F)(F)F)c1[S+](C)[O-] (stereo not shown) [inventive compound No. 1-9]
Herbicidal action against ALOMY (ALOMY [2]): 100% | Herbicidal action against PHBPU (PHBPU [3]): 80% | Herbicidal action against VIOTR (VIOTR): 100% | Herbicidal action against LOLMU (LOLMU [6]): 90% | Herbicidal action against MATIN (MATIN): 95% | Herbicidal action against PAPRH (PAPRH): 95% | Herbicidal action against ALOMY (ALOMY [4]): 80% | Herbicidal action against PHBPU (PHBPU [1]; dose 80 g a.c./ha): 90% | Herbicidal action against ABUTH (ABUTH): 100% | Herbicidal action against AMARE (AMARE [7]): 90% | Herbicidal action against LOLMU (LOLMU [8]): 80%

Cc1c(C(=O)C2C(=O)C3CCC(C3)C2=O)ccc(C(F)(F)F)c1S(C)(=O)=O (stereo not shown) [inventive compound No. 1-17]
Herbicidal action against ALOMY (ALOMY [2]): 90% | Herbicidal action against CYPES (CYPES): 90% | Herbicidal action against POLCO (POLCO): 100% | Herbicidal action against AMARE (AMARE [5]): 100% | Herbicidal action against PHBPU (PHBPU [1]; dose 12.5 g a.c./ha): 85% | Herbicidal action against EPHHL (EPHHL): 85%
